In patent US4164448A, “Activation of cholesterol oxidase for cholesterol assay” (Boehringer Mannheim GmbH, priority 1973, dated 1979):
Read-outs that look alike come from different tables or passages of the source.

Tests used:
cholesterol oxidase [1] = test: Activation of cholesterol oxidase by surface-active compounds; format: biochemical; details: for activation of cholesterol oxidase: result in words; for appropriate concentration range of surface-active compound for activation: too small an amount gives no activation, too large denatures the enzyme
From the text: In addition, other surface-active substances with lipophilic and hydrophilic properties which contain at least one hydroxyl group, can also be used. Examples of such compounds include ethanol, butyl-diglycol and hexyleneglycol.
The appropriate concentration range, as well as the optimum concentration, can be experimentally determined for all appropriate surface-active agents.

cholesterol oxidase [2] = test: Determination of cholesterol in serum with detergent-free cholesterol oxidase, extinction at 240 nm; format: biochemical; details: 0.4% in 0.5 M potassium phosphate buffer pH 7.5, 0.1 U enzyme; without surface-active agent 15 minutes were required
Procedure: 0.05 ml. of serum were added to 10 ml. 0.5 M potassium phosphate buffer of pH 7.5 which contained 0.4% hydroxypolyethoxydodecane. The extinction (E1) was read off at 240 nm in a suitable spectrophotometer and the reaction started with 0.02 ml. (0.1 U) of storage-stable cholesterol oxidase, freed from traces of detergent, in 1 M aqueous ammonium sulfate solution. After 3 minutes, the extinction (E2) was read off. The concentration of the cholestenone formed and thus of the cholesterol was given by the difference between the first and second readings, having regard to the molar extinction coefficients for […] at 240 nm. The measurement of a typical sample gave 62 mg.% free cholesterol and 167 mg.% total cholesterol (after saponification).
A comparative determination but without the addition of the surface-active agent required a reaction time of 15 minutes.

cholesterol oxidase [3] = details: 1 M ammonium sulfate, 33° C.
Procedure: The experiments were carried out with an octyl-phenol-ethylene oxide adduct.

Row | Compound | activation of cholesterol oxidase (cholesterol oxidase [1]) | appropriate concentration range of surface-active compound for activation (cholesterol oxidase [1]) [wt.%] | other results
1 | OC1CCCCC1 [cyclohexanol] | no activation |  | 
2 | OCCO [ethylene glycol] | no activation |  | 
3 | OCC(O)CO [glycerol] | no activation |  | 
4 | CO [methanol] | no activation |  | 
5 | C[C@H](CCC(=O)O)[C@H]1CC[C@H]2[C@@H]3CC[C@@H]4C[C@H](O)CC[C@]4(C)[C@H]3C[C@H](O)[C@]12C [sodium desoxycholate] |  | 0.03 to 0.05 | 
6 | desoxycholates | Similarly good results |  | 
7 | hydroxypolyethoxydodecane |  | 0.15 to 0.6 | reaction time of the cholesterol determination (cholesterol oxidase [2]): 3 min
8 | octyl-phenol-ethylene oxide adduct |  | 0.03 to 0.1 | Activity of cholesterol oxidase in %, referred to freshly prepared enzyme (cholesterol oxidase [3]; detergent 0.02%, storage period 10 days): 60%; Activity of cholesterol oxidase in %, referred to freshly prepared enzyme (cholesterol oxidase [3]; detergent 0.02%, storage period 22 days): 40%; Activity of cholesterol oxidase in %, referred to freshly prepared enzyme (cholesterol oxidase [3]; detergent 0.05%, storage period 10 days): 7%; Activity of cholesterol oxidase in %, referred to freshly prepared enzyme (cholesterol oxidase [3]; detergent 0.05%, storage period 22 days): 1%; Activity of cholesterol oxidase in %, referred to freshly prepared enzyme (cholesterol oxidase [3]; detergent 0.6%, storage period 10 days): 3%; Activity of cholesterol oxidase in %, referred to freshly prepared enzyme (cholesterol oxidase [3]; detergent 0.6%, storage period 22 days): 1%; Activity of cholesterol oxidase in %, referred to freshly prepared enzyme (cholesterol oxidase [3]; detergent amount not printed (column between 0.05% and 0.6%), storage period 10 days): 7%; Activity of cholesterol oxidase in %, referred to freshly prepared enzyme (cholesterol oxidase [3]; detergent amount not printed (column between 0.05% and 0.6%), storage period 22 days): 1%
9 | polyoxyethylene derivatives of sorbitol anhydrides |  | 0.15 to 0.6 | 
